Type in all cases: functional, organism-based
Assay [1] has as its system Leishmania amazonensis. The experiment in a line: In vitro for leishmanicidal activity against Leishmania amazonensis (PH8) at the concentration of 10 ug/mL.
Assay [2] concerns Leishmania amazonensis. Description: In vitro for leishmanicidal activity against Leishmania amazonensis (PH8) at 25 ug/mL; No lysis of parasites.
Assay [3] deals with Leishmania donovani. Description: In vitro for leishmanicidal activity against Leishmania donovani (PP75) at the concentration of 25 ug/mL.
For assay [4], the system named is Leishmania braziliensis. The experiment in a line: Tested in vitro for leishmanicidal activity against Leishmania brasiliensis (2903) at the concentration of 100 ug/mL; + indicates Less than 70% lysis of parasites.
Assay [5] deals with Leishmania donovani. Description: In vitro for leishmanicidal activity against Leishmania donovani (PP75) at the concentration of 100 ug/mL.
For assay [6], the system named is Leishmania donovani. The experiment in a line: Tested in vitro for leishmanicidal activity against Leishmania donovani (PP75) at the concentration of 10 ug/mL.
For assay [7], the system named is Leishmania amazonensis. The experiment in a line: In vitro for leishmanicidal activity against Leishmania amazonensis (PH8) at the concentration of 100 ug/mL.
The subject of assay [8] is Leishmania braziliensis. Description: In vitro for leishmanicidal activity against Leishmania brasiliensis (2903) at the concentration of 10 ug/mL.
In assay [9] the test system is Leishmania donovani. Description: In vitro for leishmanicidal activity against Leishmania donovani (PP75) at the concentration of 50 ug/mL.
The test system of assay [10] is Leishmania amazonensis. The experiment in a line: In vitro for leishmanicidal activity against Leishmania amazonensis (PH8) at the concentration of 50 ug/mL.
Assay [11] deals with Leishmania braziliensis. The experiment in a line: In vitro for leishmanicidal activity against Leishmania brasiliensis (2903) at the concentration of 50 ug/mL.
In assay [12] the test system is Leishmania braziliensis. Description: In vitro for leishmanicidal activity against Leishmania brasiliensis (2903) at the concentration of 25 ug/mL.
Assay [13] concerns Leishmania donovani. The experiment in a line: In vitro for leishmanicidal activity against Leishmania donovani (PP75) at the concentration of 10 ug/mL.
For assay [14], the system named is Leishmania braziliensis. The experiment in a line: Tested in vitro for leishmanicidal activity against Leishmania brasiliensis (2903) at the concentration of 10 ug/mL;+ indicates Less than 70% lysis of parasites.
Assay [15] has as its system Leishmania braziliensis. The experiment in a line: In vitro for leishmanicidal activity against Leishmania brasiliensis (2903) at the concentration of 100 ug/mL.
Assay [16] concerns Leishmania amazonensis. The experiment in a line: Tested in vitro for leishmanicidal activity against Leishmania amazonensis (PH8) at the concentration of 100 ug/mL; + indicates less than 70% lysis of parasites.
For assay [17], the system named is Leishmania donovani. The experiment in a line: Tested in vitro for leishmanicidal activity against Leishmania donovani (PP75) at the concentration of 100 ug/mL;+ indicates Less than 70% lysis of parasites.
For assay [18], the system named is Leishmania braziliensis. The experiment in a line: Tested in vitro for leishmanicidal activity against Leishmania brasiliensis (2903) at the concentration of 100 ug/mL; ++ indicates 80-90% lysis of parasites.
The test system of assay [19] is Leishmania donovani. The experiment in a line: Tested in vitro for leishmanicidal activity against Leishmania donovani (PP75) at the concentration of 25 ug/mL;+ indicates Less than 70% lysis of parasites.
Assay [20] has as its system Leishmania braziliensis. The experiment in a line: Tested in vitro for leishmanicidal activity against Leishmania brasiliensis (2903) at the concentration of 25 ug/mL;+ indicates Less than 70% lysis of parasites.
Assay [21] deals with Leishmania braziliensis. The experiment in a line: Tested in vitro for leishmanicidal activity against Leishmania brasiliensis (2903) at the concentration of 50 ug/mL;++ indicates 80-90% lysis of parasites.
The test system of assay [22] is Leishmania donovani. The experiment in a line: Tested in vitro for leishmanicidal activity against Leishmania donovani (PP75) at the concentration of 50 ug/mL;++ indicates 80-90% lysis of parasites.
Assay [23] has as its system Leishmania amazonensis. Description: Tested in vitro for leishmanicidal activity against Leishmania amazonensis (PH8) at the concentration of 25 ug/mL; + indicates less than 70% lysis of parasites.

SMILES strings stand for the structures.

In the case of `CCCCCCCCCCCCCCC(CO)NC(=O)CCCCCC` (stereo unspecified), the Activity result with Leishmania amazonensis [1], with Leishmania amazonensis [2], in the assay on Leishmania donovani [3], in the assay on Leishmania braziliensis [4], in the assay on Leishmania donovani [5] and in the assay with Leishmania donovani [6] was “Less than 70% lysis of parasites” each time. The Activity entry with Leishmania amazonensis [7], in the assay with Leishmania braziliensis [8], in the assay with Leishmania donovani [9], with Leishmania amazonensis [10], with Leishmania braziliensis [11] and in the assay on Leishmania braziliensis [12] was “Less than 70% lysis of parasites” throughout.
On to `CCCCCCCCCCCCCCC(N)CN(CC)CC` (stereo unspecified), for which the Activity entry in the assay with Leishmania amazonensis [1] is “Less than 70% lysis of parasites”; in the assay with Leishmania donovani [13] it was “Less than 70% lysis of parasites”; with Leishmania donovani [5], “+”; with Leishmania braziliensis [14] it was “Less than 70% lysis of parasites”; in the assay with Leishmania amazonensis [7] it was “+”; in the assay with Leishmania donovani [9], “+”. Besides, the Activity entry with Leishmania braziliensis [15] and with Leishmania amazonensis [10] was “+” in each case.
Turning to `CCCCCCCCCCCCCCC(=O)NC(CCCCCCCCCCCCCC)COC(=O)CCCCCCCCCCCCCC` (stereo unspecified), the Activity result in the assay on Leishmania amazonensis [1], with Leishmania amazonensis [2], in the assay on Leishmania donovani [3], in the assay with Leishmania braziliensis [4], in the assay with Leishmania amazonensis [16] and with Leishmania donovani [6] was “Less than 70% lysis of parasites” each time. Moreover, the Activity entry with Leishmania donovani [17], with Leishmania braziliensis [8], in the assay with Leishmania donovani [9], in the assay with Leishmania amazonensis [10], in the assay with Leishmania braziliensis [11] and with Leishmania braziliensis [12] was “Less than 70% lysis of parasites” each time.
Take `CCCCCCCCCCCCCCC(=O)NC(CO)CCCCCCCCCCCCCC` (stereo unspecified): the Activity result in the assay on Leishmania amazonensis [1], in the assay with Leishmania amazonensis [2], in the assay with Leishmania donovani [3], in the assay on Leishmania braziliensis [4], with Leishmania amazonensis [16] and in the assay on Leishmania donovani [6] was “Less than 70% lysis of parasites” in each case. The Activity entry in the assay with Leishmania donovani [17], in the assay with Leishmania braziliensis [8], with Leishmania donovani [9], in the assay on Leishmania amazonensis [10], in the assay on Leishmania braziliensis [11] and in the assay on Leishmania braziliensis [12] was “Less than 70% lysis of parasites” in each case.
As for `CCCCCCCCCCCCCCC(NC(=O)OC(C)(C)C)C(=O)O` (stereo unspecified), the Activity with Leishmania braziliensis [18], with Leishmania amazonensis [1], in the assay on Leishmania amazonensis [2], in the assay with Leishmania donovani [3], in the assay on Leishmania donovani [5] and with Leishmania donovani [6] was 80-90% lysis of parasites in each case. The Activity in the assay with Leishmania amazonensis [7], in the assay on Leishmania braziliensis [8], in the assay on Leishmania donovani [9], with Leishmania amazonensis [10], in the assay on Leishmania braziliensis [11] and in the assay on Leishmania braziliensis [12] was 80-90% lysis of parasites each time.
As for `CCCCCCCCCCCCCCC(COCc1ccccc1)N(CC)CC` (stereo unspecified), the Activity in the assay on Leishmania braziliensis [18], with Leishmania amazonensis [1], in the assay on Leishmania amazonensis [2], with Leishmania donovani [3], with Leishmania donovani [5] and in the assay with Leishmania donovani [6] was 80-90% lysis of parasites throughout. In addition, the Activity in the assay on Leishmania amazonensis [7], in the assay on Leishmania braziliensis [8], in the assay with Leishmania donovani [9], in the assay on Leishmania amazonensis [10], with Leishmania braziliensis [11] and with Leishmania braziliensis [12] was 80-90% lysis of parasites in each case.
As to `CCCCCCCCCCCCCCC(CNCC(=O)OCC)NC(=O)OC(C)(C)C` (stereo unspecified), the Activity was 80-90% lysis of parasites with Leishmania amazonensis [1]; 80-90% lysis of parasites in the assay with Leishmania donovani [19]; 80-90% lysis of parasites in the assay with Leishmania braziliensis [20]; 80-90% lysis of parasites in the assay with Leishmania donovani [13]; “+” in the assay with Leishmania donovani [5]; 80-90% lysis of parasites in the assay on Leishmania braziliensis [14]. The Activity is 80-90% lysis of parasites with Leishmania braziliensis [21]; “+” with Leishmania amazonensis [7]; 80-90% lysis of parasites with Leishmania donovani [22]; “+” in the assay on Leishmania braziliensis [15]; “+” in the assay with Leishmania amazonensis [10]; 80-90% lysis of parasites in the assay with Leishmania amazonensis [23].
Take `CCCCCCCCCCCCCCC(CO)NC(=O)OC(C)(C)C` (stereo unspecified): the Activity with Leishmania braziliensis [18], with Leishmania amazonensis [1], in the assay on Leishmania amazonensis [2], with Leishmania donovani [3], in the assay with Leishmania donovani [5] and with Leishmania donovani [6] was 80-90% lysis of parasites each time. Also, the Activity with Leishmania amazonensis [7], in the assay with Leishmania braziliensis [8], in the assay with Leishmania donovani [9], with Leishmania amazonensis [10], in the assay on Leishmania braziliensis [11] and with Leishmania braziliensis [12] was 80-90% lysis of parasites in each case.
As for `CCCCCCCCCCCCCCC(COCc1ccccc1)NCC(=O)OCC` (stereo unspecified), the Activity with Leishmania braziliensis [18], with Leishmania amazonensis [1], with Leishmania amazonensis [2], in the assay with Leishmania donovani [3], in the assay on Leishmania donovani [5] and in the assay on Leishmania donovani [6] was 80-90% lysis of parasites in each case. The Activity in the assay with Leishmania amazonensis [7], in the assay with Leishmania braziliensis [8], in the assay on Leishmania donovani [9], with Leishmania amazonensis [10], with Leishmania braziliensis [11] and with Leishmania braziliensis [12] was 80-90% lysis of parasites each time.
Regarding `CCCCCCCCCCCCCCC(COCc1ccccc1)NC(=O)CCCC(=O)O` (stereo unspecified), the Activity with Leishmania braziliensis [18], in the assay on Leishmania amazonensis [1], in the assay on Leishmania amazonensis [2], in the assay with Leishmania donovani [3], in the assay with Leishmania donovani [5] and in the assay with Leishmania donovani [6] was 80-90% lysis of parasites each time. The Activity with Leishmania amazonensis [7], in the assay on Leishmania braziliensis [8], in the assay with Leishmania donovani [9], in the assay with Leishmania amazonensis [10], with Leishmania braziliensis [11] and in the assay on Leishmania braziliensis [12] was 80-90% lysis of parasites throughout.

Source of the values: ChEMBL document CHEMBL1135076, “Leishmanicidal activity of some aliphatic diamines and amino-alcohols” (Bioorg Med Chem Lett, 2002).
